pIC50: −log10 of the molar value. Like-named read-outs stand apart in the source and are kept apart here.
Key:
KRAS G12D = target: T1, KRAS G12D (Homo sapiens, UniProt P01116, G12D); assay: HTRF assay, KRAS G12D interaction with SOS1; type: biochemical
T1 construct: made in house; host or cells: E. coli, e.g. BL21 (DE3)

KRAS WT = target: T2, KRAS WT (Homo sapiens, UniProt P01116); assay: HTRF assay, wildtype KRAS interaction with SOS1; type: biochemical; conditions: bins <500 nM / 500 nM to 1000 nM, read-out: Inhibition of KRAS WT (IC50)
T2 construct: made in house; host or cells: E. coli, e.g. BL21 (DE3)

KRAS G12V = target: T3, KRAS G12V (Homo sapiens, UniProt P01116, G12V); assay: HTRF assay, KRAS G12V interaction with SOS1; type: biochemical
T3 construct: made in house; host or cells: E. coli, e.g. BL21 (DE3)

KRAS G12S = target: T4, KRAS G12S (Homo sapiens, UniProt P01116, G12S); assay: HTRF assay, KRAS G12S interaction with SOS1; type: biochemical
T4 construct: made in house; host or cells: E. coli, e.g. BL21 (DE3)

MiaPaca2 cells = assay: Ras cellular assay, growth of cells with K-Ras G12C mutation; type: cell-based; conditions: Homo sapiens, MIA PaCa-2; KRAS G12C cell line; read-out: IC50 against MiaPaca2 cells
Method in brief: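 MIA PaCa-2 cells (K-Ras G12C, about 125-150 cells/well) grown in 0.25% soft agar over a 0.6% agar base, compound added on day 2 at 0.3% final DMSO. Growth read on day 10 by Cell Titer 96 AQueous absorbance (490 nm, reference 660 nm) against time-zero wells; IC50 from four-parameter fit.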

LS123 cells = assay: Ras cellular assay, growth of cells with K-Ras G12S mutation (CellTiter-Glo); type: cell-based; conditions: Homo sapiens, LS-123; KRAS G12S cell line; read-out: IC50 against LS123 cells
Method: For example, this assay can be also used to assess selective growth inhibition of a mutant Ras protein relative to a wildtype or different mutant Ras protein.
A549 (ATCC CRL-185) and LS123 (ATCC CRL-255) cell lines comprise a G12S mutation and can be used to assess Ras cellular signaling in vitro, e.g., in response to treatment with a compound described herein. A549 culture medium is prepared with RPMI-1640 and 10% heat-inactivated FBS. LS123 culture medium is prepared with RPMI-1640 and 10% heat-inactivated FBS. A CellTiter-Glo (CTG) luminescent based assay (Promega) is used to assess growth of the cells, as a measurement of the ability of the compounds herein to inhibit Ras signaling in the cells. The cells (e.g., 800 per well) are seeded in their respective culture medium in standard tissue culture-treated 384-well format plates (Falcon #08-772-116) or ultra-low attachment surface 384-well format plates (S-Bio #MS-9384WZ). […] Cell viability can be monitored (e.g., approximately 6 days later) according to the manufacturer's recommended instructions, where CellTiter-Glo reagent is added (e.g., approximately 10 μL), vigorously mixed, covered, and placed on a plate shaker (e.g., approximately for 20 min) to ensure sufficient cell lysis prior to assessment of luminescent signal. The IC50 values are determined using the four parameter fit. […]

T4 sequence (P01116 1-188 isoform P01116-2 G12S): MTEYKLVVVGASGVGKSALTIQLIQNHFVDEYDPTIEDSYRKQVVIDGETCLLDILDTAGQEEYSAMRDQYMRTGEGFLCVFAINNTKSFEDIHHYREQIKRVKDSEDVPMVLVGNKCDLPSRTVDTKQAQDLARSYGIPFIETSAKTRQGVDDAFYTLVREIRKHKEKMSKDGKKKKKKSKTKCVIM
T3 sequence (P01116 1-188 isoform P01116-2 G12V): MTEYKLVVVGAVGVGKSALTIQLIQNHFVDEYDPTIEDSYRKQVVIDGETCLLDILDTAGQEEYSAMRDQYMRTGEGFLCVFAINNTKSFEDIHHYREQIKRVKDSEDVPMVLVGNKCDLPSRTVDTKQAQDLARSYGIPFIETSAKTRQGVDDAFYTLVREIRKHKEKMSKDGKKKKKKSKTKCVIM
T1 sequence (P01116 1-188 isoform P01116-2 G12D): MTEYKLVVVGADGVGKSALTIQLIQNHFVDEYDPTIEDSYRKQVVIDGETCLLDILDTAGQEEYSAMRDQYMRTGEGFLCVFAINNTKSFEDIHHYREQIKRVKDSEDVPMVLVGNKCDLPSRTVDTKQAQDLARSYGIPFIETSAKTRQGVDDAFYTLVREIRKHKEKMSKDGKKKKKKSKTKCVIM
T2 sequence (P01116 1-188 isoform P01116-2): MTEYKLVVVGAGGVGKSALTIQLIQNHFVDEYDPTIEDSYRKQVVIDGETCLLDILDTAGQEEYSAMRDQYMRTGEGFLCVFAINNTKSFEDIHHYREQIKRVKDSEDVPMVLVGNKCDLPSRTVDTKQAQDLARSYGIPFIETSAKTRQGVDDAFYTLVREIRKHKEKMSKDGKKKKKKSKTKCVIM

- pIC50 (KRAS G12D; bins <500 nM / 500 nM to 1000 nM, read-out: Inhibition of KRAS G12D (IC50)): > 6.30
- pIC50 (KRAS G12D; read-out: IC50 against KRAS G121): > 8.30
- pIC50 (KRAS WT): > 6.30
- pIC50 (KRAS G12V; bins <500 nM / 500 nM to 1000 nM, read-out: Inhibition of KRAS G12V (IC50)): > 6.30
- pIC50 (KRAS G12V; read-out: IC50 against KRAS G12V): > 8.30
- pIC50 (KRAS G12S; bins <500 nM / 500 nM to 1000 nM, read-out: Inhibition of KRAS G12S (IC50)): > 6.30
- pIC50 (KRAS G12S; read-out: IC50 against KRAS G12S): > 8.30
- pIC50 (MiaPaca2 cells): 9.38
SMILES: CCN(c1nc(OCC23CCCN2C(COc2cc(C(F)(F)F)ncn2)CC3)nc2c(F)c(-c3ccc(F)c4sc(N)c(C#N)c34)c(Cl)cc12)[C@@H]1CCN(C(=O)n2cc(C)nc2C)[C@@H]1C (single isomer, unassigned) [Compound 197]
- pIC50 (LS123 cells): 8.34
